Reference: US7153979B2, “Triterpene derivatives and remedies for liver diseases” (Meiji Seika Kaisha, Ltd., priority 1996, dated 2006)

Tested on: hepatitis induced by concanavalin A in mice
Experiment: Concanavalin A (Con A) hepatitis model, plasma ALT
Assay type: in vivo, BALB/c male mice
Settings: 24 hr after Con A, control group 2068±518
Description: Effect in Concanavalin A (Con A) Hepatitis Model
Con A dissolved in physiological saline was intravenously administered at a dose of 20 mg/kg to BALB/c male mice (8 weeks in age) having a body weight of 21 to 25 g to induce hepatitis. A test compound (compound 7) was suspended in a mixed solution (control vehicle) composed of 25% dimethylsufoxide, 25% polyethylene glycol 400, and 0.25% carboxymethyl cellulose, and the suspension was subcutaneously administered 2 hr and 14 hr before the administration of Con A at three levels of dose, i.e., 0.2 mg/mouse, 1.0 mg/mouse, and 2.0 mg/mouse. A control vehicle alone was administered to a group of control mice. Twenty four hr after the administration of Con A, the mice were sacrificed under ether anesthesia to assay the alanine aminotransferase (ALT) activity, in plasma, as an index of hepatopathy.

Compound: CC1(C)C[C@H]2C3=CC[C@@H]4[C@@]5(C)CC[C@H](O)[C@](C)(CO)[C@@H]5CC[C@@]4(C)[C@]3(C)CC[C@@]2(C)[C@H](O)[C@@H]1O [Compound 7, Soyasapogenol A]
- alanine aminotransferase (ALT) activity in plasma (1.0 mg/mouse subcutaneously 2 hr and 14 hr before Con A 20 mg/kg i.v.): 55±16 u/l
- alanine aminotransferase (ALT) activity in plasma (2.0 mg/mouse subcutaneously 2 hr and 14 hr before Con A 20 mg/kg i.v.): 55±16 u/l
